# In patent EP1129354B1, “A METHOD FOR DETERMINING A MIMOTOPE SEQUENCE” (PEPSCAN SYSTEMS B.V., priority 1998, dated 2000):
# Tested on: Monoclonal antibody 26/9
# Assay: PEPSCAN-based ELISA, binding of peptides to antibody 26/9 (Example-1)
# Conditions: value is the antibody 26/9 concentration at which the peptide shows binding activity in pepscan elisa
row,Substance,activity at
1,EGCAAMNIRCYA,activity at ≥ 10.0 µg/ml
2,CGCAAMNIRNYA,activity at ≥ 10.0 µg/ml
3,EMDEEEDVMNYA,activity at ≥ 0.1 µg/ml
4,CGCAEMNIRCYA,activity at ≥ 10.0 µg/ml
5,EMDEEEDIMDYA,activity at ≥ 0.1 µg/ml
6,CGDAAMNIRCYA,activity at ≥ 10.0 µg/ml
7,CGCAANINIMCYA,activity at ≥ 10.0 µg/ml
8,CGCAAMDIRCYA,activity at ≥ 10.0 µg/ml
9,EMDEEEDIPNYA,activity at ≥ 0.1 µg/ml
10,CGCEAMMIRCYA,activity at ≥ 10.0 µg/ml
11,CMCAAMNIRCYA,activity at ≥ 10.0 µg/ml
12,CGCAAENIRCYA,activity at ≥ 10.0 µg/ml

# Tested on: antibody
# Assay: Pepscan ELISA, replacement analyses (Example-2)
# Type: binding
# Conditions: value is the antibody concentration, antibody binds a non-linear epitope
row,Substance,activity at
1,KWASSAIGAFKL,activity at ≥ 0.5 µg/ml
2,ANWPSAIGAFGL,activity at ≥ 10.0 µg/ml
3,AWWPSAIGAFGL,activity at ≥ 5.0 µg/ml
4,HWASSAIGAFKL,activity at ≥ 1.0 µg/ml
5,HNWPSAIGAFGL,activity at ≥ 5.0 µg/ml
6,HWASSAMGAFKL,activity at ≥ 0.5 µg/ml
7,HYASSAIGAFKL,activity at ≥ 0.5 µg/ml
8,HWGSSAIGAFKL,activity at ≥ 0.5 µg/ml
9,ANAPSAIGAFGL,activity at ≥ 5.0 µg/ml
10,KYFSSAMGAFKL,activity at ≥ 0.05 µg/ml
11,KYFSSGMGAFKL,activity at ≥ 0.01 µg/ml
12,ANWSSAIGAFGL,activity at ≥ 5.0 µg/ml
13,KYGSSAMGAFKL,activity at ≥ 0.1 µg/ml
14,ANWSSAIGAFKL,activity at ≥ 5.0 µg/ml
15,KYGSSGMGAFKL,activity at ≥ 0.05 µg/ml

# Tested on: antibody
# Assay: Pepscan ELISA, lengthening and replacement analyses (Example-3)
# Type: binding
# Conditions: value is the antibody concentration
# From the text: (§1) Lead peptides can also be derived from other type of libraries such as for example phage-display libraries.
# (§2) In a replacement analysis the binding activity of complete series of substitutions analogs of lead peptides, in which each position is replaced by each of the other 19 natural L-amino acids, is investigated in detail. In addition, it is possible to use the 20 D-amino acids as well as other available non-natural amino acids. Substitutions that result in improved binding are combined into new sequences of building blocks. These new sequences are again tested in a 2nd replacement analysis. If necessary more rounds of replacement analyses are performed. After each round of a replacement analyses the antibody (or other soluble receptor) concentration can be lowered to obtain maximal binding activity (e.g. from 100 µg/ml to 0.01 µg/ml after 2 rounds of replacement-analyses, as shown in example-1).
# (§3) Notes for the examples: • the 10 µg/ml, 1 µg/ml etc. denote the antibody concentration. • The line "improved position-01" etc. means that this change in amino acid (is underlined) improves binding activity in pepscan elisa at given antibody concentration. Positions that could not be improved are not mentioned (e.g. position-08 in first replacement-net of example-1, i.e. the original I at position 8 gives the highest activity).
# In example-3, lead peptides were identified through phage-display. Adjacent cysteines/glycines were added to improve binding activity. After obtained activity multiple replacement analyses were done as discussed in example-1.
row,Substance,activity at
1,DYETKFGNG,activity at ≥ 0.01 µg/ml
2,CTETKYGCG,activity at ≥ 0.5 µg/ml
3,CYETKFGCG,activity at ≥ 0.1 µg/ml
4,CSETRKGCG,activity at ≥ 5.0 µg/ml
5,CSDTRYGCG,activity at ≥ 5.0 µg/ml
6,CTETHFGCG,activity at ≥ 0.5 µg/ml
7,CTETHYGCG,activity at ≥ 1.0 µg/ml
8,CSDTHKGCG,activity at ≥ 5.0 µg/ml
9,CYETKFGNG,activity at ≥ 0.05 µg/ml
10,CTDTRKGCG,activity at ≥ 5.0 µg/ml
11,CSDTRKGC,activity at ≥ 10.0 µg/ml
12,CYETHYGCG,activity at ≥ 0.5 µg/ml
13,DYETKFGCG,activity at ≥ 0.05 µg/ml

# Tested on: antibody
# Assay: Pepscan ELISA, replacement analyses and lengthening (Example-4)
# Type: binding
# Conditions: value is the antibody concentration
# From the text: In addition to random minipepscan libraries mimotopes can also be identified from standard pepscan libraries. These libraries contain all overlapping 12-mers (or shorter/longer) covering the linear sequence of a known protein (Slootstra et al., 1995a).
# as §2, §3
# In example-4, a lead peptide was identified through standard pepscan analysis, i.e. the antibody was tested on all overlapping 12-mers covering the linear sequence of the protein. The following two rounds of replacement analyses were done as discussed in example-1. In addition, the mimotope was lengthened to the left and right (3 amino acids, this can be further lengthened) through additional replacement analyses.
row,Substance,activity at
1,AVMIKLILVNFR,activity at ≥ 5.0 µg/ml
2,APPIKLIRVNYR,activity at ≥ 0.5 µg/ml
3,KIYYPPISLIRV,activity at ≥ 0.5 µg/ml
4,AVPIKLILVNFR,activity at ≥ 5.0 µg/ml
5,KPYYPPIKLIRV,activity at ≥ 0.5 µg/ml
6,"RPWYPPISLIRV [combination impr., replacement analysis-III]",activity at ≥ 0.1 µg/ml
7,"IKLIRVNYRCEN [combination impr., replacement analysis-IV]",activity at ≥ 0.1 µg/ml
8,RIYYPPIKLIRV,activity at ≥ 0.5 µg/ml
9,AVMIKLIRVNFR,activity at ≥ 5.0 µg/ml
10,YIPIKLIRVNYR,activity at ≥ 0.5 µg/ml
11,AVMIKLILVNYR,activity at ≥ 5.0 µg/ml
12,AIMIKLILVNFR,activity at ≥ 5.0 µg/ml
13,IKLIRVNYRMQN,activity at ≥ 0.5 µg/ml
14,IKLIRVNYRCQP,activity at ≥ 0.5 µg/ml
15,YPPIKLIRVNYR,activity at ≥ 0.1 µg/ml
16,RVMIKLILVNFR,activity at ≥ 10.0 µg/ml
17,IKLIRVNYRMEP,activity at ≥ 0.5 µg/ml
18,"RPWYPPISLIRVNYRCEN [combination total, 18-mer mimotope]",activity at ≥ 0.01 µg/ml
19,KIYYPPIKLIRV [lengthened left],activity at ≥ 1.0 µg/ml
20,IKLIRVNYRMQP [lengthened right],activity at ≥ 1.0 µg/ml
21,KIWYPPIKLIRV,activity at ≥ 0.5 µg/ml

# Tested on: antibody
# Assay: Pepscan ELISA, replacement analyses of three leads and consensus (Example-6)
# Type: binding
# Conditions: value is the antibody concentration
# From the text: as §1, §2, §3
# In example-6, different lead peptides were used to identify a consensus sequence. Each lead peptide was used in multiple replacement analyses (two rounds).
row,Substance,activity at
1,NVCHWA,: activity at ≥0.5 µg/ml
2,NVCHWS,: activity at ≥ 5.0 µg/ml
3,NICHWA,: activity at ≥ 1.0 µg/ml
4,NICSWS,: activity at ≥ 5.0 µg/ml
5,KLATRW,: activity at ≥ 5.0 µg/ml
6,ANWSSA,: activity at ≥ 5.0 µg/ml
7,SSATRY,: activity at ≥ 1.0 µg/ml
8,HNWPSA,: activity at ≥ 5.0 µg/ml
9,AWWPSA,: activity at ≥ 5.0 µg/ml
10,ANAPSA,: activity at ≥ 5.0 µg/ml
11,NVCSWS,: activity at ≥ 10.0 µg/ml
12,YICHWA,: activity at ≥0.5 µg/ml
13,YVCHWA,: activity at ≥ 0.1 µg/ml
14,SLITRW,: activity at ≥ 5.0 µg/ml
15,HWASPA,: activity at ≥ 0.5 µg/ml
16,KLITRW,: activity at ≥ 10.0 µg/ml
17,KLITRY,: activity at ≥ 5.0 µg/ml
18,NVCSWA,: activity at ≥ 5.0 µg/ml
19,YVCHWASSATRY,activity at 0.01 µg/ml
20,ANWPSA,: activity at ≥ 10.0 µg/ml
21,KSITRW,: activity at ≥ 5.0 µg/ml

# Tested on: antibody
# Assay: Pepscan ELISA, replacement analyses of consensus sequence (Example-5)
# Type: binding
# Conditions: value is the antibody concentration
# Procedure: All 4550 dodecapeptides were ranked according to their binding activity. According to their ranking consensus sequences and motifs are identified. Initial methods of lead optimization that only use the sequence of the top 50 molecules have been described in Slootstra et al.(1995b; 1997). The present method uses all 4550 sequences. Firstly, the frequency and/or distribution of single amino acids and the dipeptide motifs OO, dipeptide motifs OXO and dipeptide motifs OXXO is determined using Microsoft Excel 4.0 (O, one of the 20 natural L-amino acids; X, any residue). Secondly, properties of the amino acids (hydrophobicity, charge etc.) are included in the analysis. […] This is done by substitution of building blocks that inhibit activity and include building blocks that improve binding activity.
# as §2, §3
# In example-5, a set of similar lead peptides were used to identify a consensus sequence. The consensus sequences were identified as discussed in materials and method. This sequence was used in the replacement analyses. ALIGNMENT OF LEAD PEPTIDES: • QNNMKLFRGCVP • RGIKWNEMTDQW • KLQQNPTFYPPV • TNNCKEFAGIVP • RGILTNIMKDQW • IVQNNPKFFRGA
row,Substance,activity at
1,ILQNNMKDFRG,activity at ≥ 1.0 µg/ml
2,ILTNNMPDWRG,activity at ≥ 0.1 µg/ml
3,ILQNNMPDFRG,activity at ≥ 0.5 µg/ml
4,ILQNNMKDWRG,activity at ≥ 0.5 µg/ml
5,ILTNNMGDWRG,activity at ≥ 0.05 µg/ml
6,ILTNNMGDWYG,activity at ≥ 0.01 µg/ml
7,ILTNNMPDWYG,activity at ≥ 0.05 µg/ml
8,ILTNNMKDFRG,activity at ≥ 0.5 µg/ml
